Measurements taken from patent US20070148448A1, “Microencapsulated delivery vehicles including cooling agents” (Kimberly-Clark Worldwide, Inc., priority 2005, published 2007).

System: Methicillin-resistant Staphylococcus aureus
Details: 0.005% (by weight) active PHMB
Procedure: This Example utilized 1.5-milliliter tubes containing a 1-milliliter blend of phosphate-buffered saline (pH 7.2) and 5% (w/v) bovine serum albumin soil. The tubes were placed in electric heat blocks set for 22° C., 30° C., 40° C. and 50° C., respectively. The tubes remained in the electric heat blocks for approximately 10 minutes.
Duplicate tubes without PHMB at each temperature were also made.
All of the tubes were then placed back into the heat blocks at their respective temperatures. […] The letheen samples were then plated in duplicate on Tryptic Soy agar plates using a WASP2 spiral plater (commercially available from Don Whitley Scientific, Ltd., Yorkshire, United Kingdom).
After 48 hours, the plates were evaluated using a total plate count to determine the biocidal efficacy of each sample.

Substance: polyhexamethylene biguanide [PHMB]
- difference in efficacy between 22° C. and 50° C.: greater than 1.4 LOG,o
